Measurements as given in ChEMBL document CHEMBL3507680, “University of Dundee, Gates Library screen for HepG2 cell viability”.

Experiment: Human HepG2 cell viability assay in 384 well format
Format: toxicity, cell-based
Design: dose 125 nL, time 70.5 hour; cytotoxicity at 70.5 h: concentration not given beside the values
Conditions: HepG2 cells, read-out: Inhibition

| Compound | cytotoxicity at 70.5 h |
| --- | --- |
| NC(=O)CC1CCN(S(=O)(=O)c2cnn(-c3ccccc3)c2)CC1 | -5.73% |
| NC(=O)C1CCN(S(=O)(=O)c2cnn(-c3ccccc3)c2)C1 (centres undefined) | -3.49% |
| CCN(Cc1ccc(C#N)cc1F)C(=O)CN(C)CC(N)=O | -4.58% |
| CC(c1nc(C2CC2)no1)N1CCN(CCS(C)(=O)=O)CC1 (centres undefined) | -4.19% |
| COc1ccc(Cl)cc1NCC(=O)N(Cc1ccncc1)C1CC1 | 15.5% |
| CC(C)(C)CCS(=O)(=O)NCCc1csc(N2CCCC2)n1 | -2.83% |
| CS(=O)(=O)CCNC(=O)NCCc1cc2ccccc2o1 | -4.01% |
| OC1(CNc2ccc(Br)cn2)CCOCC1 | -2.5% |
| CNS(=O)(=O)CC1CCCN1c1ccc(Cl)cn1 (centres undefined) | -1.45% |
| Cc1csc(CN(C)C2CCN(c3sccc3C#N)C2=O)n1 (centres undefined) | 16% |
| CCCc1noc(C(C)N2CCN(CCn3ccccc3=O)CC2)n1 (centres undefined) | -2.24% |
| CCS(=O)(=O)NCCNC(C)(C)c1nc(C)cs1 | -2.97% |
| CCCN(C(=O)CN1CCN(CCO)CC1)C1=CCCCC1 | -0.879% |
| CCN(C(=O)CN1CCN(CC(C)O)CC1)C1=CCCCC1 (centres undefined) | -3.37% |
| COc1c(C2CCCN2c2ncnc3sccc23)c(C)nn1C (centres undefined) | -2.24% |
| COc1c(C2CCCN2c2ncnc3c2cnn3C)c(C)nn1C (centres undefined) | -5.32% |
| CC(C)c1cc(C(=O)N2CCc3ccccc3C2C(=O)O)nn1C (centres undefined) | -1.42% |
| CCC(=O)NCC(=O)N(C)C(c1ccc(Cl)cc1)c1cccnc1 (centres undefined) | -1.51% |
| CN(Cc1ccco1)C(=O)CN1C(=O)c2ccccc2C1=O | -2.38% |
| O=C1NCCCCC1Sc1ccc(F)c(F)c1 (centres undefined) | -13.1% |

| Compound | cytotoxicity at 70.5 h |
| --- | --- |
| Cn1nc2c(c1NC(=O)c1cccs1)CCC2 | -12.2% |
| CN(Cc1cccs1)C(=O)CN1C(=O)c2cc(Cl)c(Cl)cc2C1=O | -13.1% |
| Cc1nc(NC2CCN(C(=O)C3CC3)CC2)c2cnn(C)c2n1 | -11.5% |
| COCCNC(=O)c1ccc(NCc2c(C)noc2C)cc1Cl | -6.64% |
| NC(=O)CCN(CC(=O)NCc1cccs1)c1ccc(F)cc1 | -6.81% |
| CC(NC(=O)CN(C)C(C)C)c1ccc(Oc2cccnc2)c(F)c1 (centres undefined) | -4.91% |
| CSCC(=O)N1CCOC(c2nc(C)n[nH]2)C1 (centres undefined) | -12.3% |
| CS(=O)(=O)CCCN1CCN(C(C#N)c2ccccc2)CC1 (centres undefined) | 0.393% |
| CCS(=O)(=O)NCCN1CCN(C(C#N)c2ccccc2)CC1 (centres undefined) | -9.85% |
| CC(C)C1CN(C(=O)c2cc(F)cc3[nH]cnc23)CCS1 (centres undefined) | -2.35% |
| CC1(C)CCN1C(=O)c1cc(F)cc2[nH]cnc12 | -9.74% |
| CNC(=O)c1ccc(CN2CCN(C3=NCC(C)(C)S3)CC2)cc1 | 17.7% |
| COC(=O)c1ccc(NCc2csc(C)n2)cc1Cl | -6.69% |
| CN(Cc1ccsc1)C(=O)CNC(=O)N1CCc2ccccc2C1 | -7.67% |
| CN(Cc1ccccn1)C(=O)CNC(=O)N1CCc2ccccc2C1 | -10.7% |
| COc1ccc(F)cc1CN(CC(N)=O)C(C)C | -3.68% |
| CC(C(N)=O)N1CCN(c2ncc(Br)cn2)CC1 (centres undefined) | 0.267% |
| Cc1noc(C(C)C)c1C(=O)N1CCC(n2cccn2)CC1 | 13.2% |
| COc1ccc(Cl)cc1CN(CC(N)=O)C(C)C | -4.98% |
| Cc1ccc(C)c(CN(CC(N)=O)C(C)C)c1 | -1.28% |

| Compound | cytotoxicity at 70.5 h |
| --- | --- |
| Cc1noc(C)c1S(=O)(=O)N1CCC(n2cccn2)CC1 | -5.3% |
| CCN(Cc1cccnc1)C1CCN(c2ccccc2)C1=O (centres undefined) | -3.8% |
| Cc1c(NC(=O)N(C)CCO)cccc1OC1CCCC1 | -7.3% |
| Cc1nn(C)c(C)c1C1CCCN1C(=O)c1cc(C(N)=O)cs1 (centres undefined) | -6.04% |
| CC(C)c1ccccc1OCCNC(=O)N1CCC(CC(N)=O)CC1 | -4.04% |
| COCCC(=O)N(CCC#N)c1ccc(C)c(C)c1 | -3.89% |
| N#CCCN(C(=O)CCc1cscn1)c1ccc2c(c1)OCCO2 | 16.5% |
| CCOc1cc(F)ccc1NC1CCN(CC(F)(F)F)C1=O (centres undefined) | -0.756% |
| Cc1cc(C)c(C(=O)N(C)CCN(C)C(=O)c2[nH]c(C)cc2C)[nH]1 | -6.06% |
| CN1CCC(Nc2cc(Cl)ccc2OCC(F)(F)F)C1=O (centres undefined) | -1.29% |
| Cc1sc(C(=O)N(C)S(C)(=O)=O)cc1-c1ccc(F)cc1 | -2.76% |
| Cc1sc(C(=O)NS(C)(=O)=O)cc1-c1ccc(F)cc1 | -4.18% |
| NC(=O)c1ccc(NC2CCOC3(CCCC3)C2)nn1 (centres undefined) | 17.2% |
| Cc1c(NC(=O)N(C)CCn2cnnc2)cccc1OC1CCCC1 | -4.56% |
| Cc1cnc(N2CCN(C(C)C(N)=O)CC2)nc1 (centres undefined) | -1.41% |
| CCCOc1cc(CNC(=O)Nc2ccccn2)ccn1 | 45.7% |
| CCNC(=O)CN1CCc2c(Br)ccc(F)c2C1 | 5.62% |
| O=C(NCCN1CCOCC1)NCc1cccnc1-n1cccn1 | -2.89% |
| O=C(CCC(=O)N1CCOCC1)NCc1cccnc1-n1cccn1 | 1.46% |
